For 1 compound, cell viability results are on record in patent publication US11793983B2, “Sonodynamic therapy using microbubbles and pulsed wave ultrasound methods and systems” (University of Pittsburgh-Of the Commonwealth System of …, priority 2017, dated 2023).

This data set has as its system Mouse squamous cell carcinoma cells SCC-VII. Put plainly: Cytotoxicity in vitro with ultrasound, alamarBlue cell viability assay. The data set is classed as cell-based. As to conditions: +US, ISAPA=1 W/cm^2, 10% duty cycle, 2 min, 24 hours after treatment. The protocol: Mouse squamous cell carcinoma cells SCC-VII were cultured in RPMI 1640 medium supplemented with 10% fetal bovine serum (FBS), […] and 200 IU/mL penicillin (Gibco, ThermoFisher Scientific, Waltham, Mass.). Cells were harvested and suspended in a concentration of 1×10^6 cells/mL using serum free RPMI-1640 medium. Every 2 mL of cell suspension was transferred to 14 mL Falcon round-bottom polystyrene tubes. Immediately before the US treatment, the suspension was supplemented together with various concentrations of MBPpIX. US (1 MHz, 10% duty cycle) exposure time for each acoustic condition is 2 min. During exposure, the sample tube was gently shaking occasionally (every 10 sec) to improve mixing and to provide uniform exposure. Free PpIX (first dissolved in DMSO; final concentration: 2.9 μM) or PpIX liposome (precursor of MBPpIX, with equivalent PpIX concentration of 2.9 μM) were used for comparison and cells not treated were used as controls (NT). After treatment procedure, 300 μL of the cell suspension was transferred to a 24 well plate prefilled with 2 mL cell culture medium, and the cells were incubated at 37° C. for 24 hours. Cell viability was then measured using alamarBlue cell viability assay. Cell morphology was examined with bright field microscopy (IX81, Olympus, Center Valley, Pa.). […]

The compound `C=CC1=C(C)c2cc3[nH]c(cc4nc(cc5[nH]c(cc1n2)c(C)c5CCC(=O)O)C(CCC(=O)O)=C4C)c(C)c3C=C` [PpIX, protoporphyrin IX] returned a cell viability of 4±3%.
